Tests used:
[1] = biological target: IL-17A(FLAG-tagged): IL-17RA(His-tagged) (Homo sapiens, UniProt Q16552, K93Q); test: IL-17A(FLAG-tagged): IL-17RA(His-tagged) binding disruption Eu-HTRF assay; settings: class of the average IC50 where tested more than once
Text: IL-17A(FLAG-tagged): IL-17RA(His-tagged) binding disruption Eu-HTRF assay An antibody directed against the FLAG tag of IL-17A (SEQ ID NO: 1) is labeled with the HTRF donor chromophore (Europium-cryptate). IL-17A is present as a dimer that is “locked into” this quaternary structure due to the formation of loop-spanning intramolecular disulfide bridges. The construct of IL-17RA used in the assay excludes the […] portion of the receptor and is fused to a C-terminal 10×His tag (SEQ ID NO:2). An antibody directed against the His tag of the IL-17RA chimera is labeled with the HTRF acceptor chromophore (“D2”). The fluorescence-resonance energy transfer (FRET) depends on the vicinity of the donor chromophore to the acceptor, and interruption of the binding between the IL-17A and IL-17RA causes the reduction/loss of FRET. Therefore, this assay allows to evaluate the compound effect on the binding IL-17A and IL-17RA by monitoring the fluorescence intensity of donor vs acceptor. The assay is run as described below.
40 nl of 2-fold serial diluted compound solution for total 22 dilution points is added into each well of a 1536-well, white, low-volume, non-binding plate (Greiner #782904), then 2 μl of FLAG tagged IL-17A at 2× final concentration (1 μM) in solution of PBS+0.01% Triton-X100 is added to each well. The assay plate is briefly centrifuged then incubated for 1 h at rt. A mixed solution is prepared containing 2×5 nM 10HIS×IL-17RA, 2×2.5 nM Eu-anti-FLAG (CISBIO), 2×5 nM D2-anti-HIS (CISBIO) in PBS+0.01% Triton-X100+200 mM Potassium Fluoride (Sigma 60238) and 2 μl of mix is added to each well of the assay plate. The plate is briefly centrifuged then incubated for 2 h at rt. The HTRF intensities at the wavelength of donor (615 nm) and acceptor (665 nm) are measured using BMG Pherastar. The ratio between intensities at two wavelengths is calculated and plotted against the compound concentration and the data is fitted to a one-site competition model to yield IC50 of the compound.

[2] = tested on: IL-17A-induced G-CSF production in human normal keratinocyte (NHK); test: NHK assay: IL-17A-induced G-CSF production in normal human keratinocytes; assay type: cell-based; settings: Homo sapiens, Keratinocyte, 24 h, IL-17A 5 ng/mL, class of the average IC50 where tested more than once
Description: IL-17A acts directly on keratinocytes through binding to dimeric receptor IL-17RA/RC and drives the production of a number of inflammatory mediators known to be elevated in psoriasis lesional tissue. IL-17A small molecule inhibitors that block the IL-17A to interact with IL-17R would inhibit the IL-17A signaling in its targeted cells such as keratinocytes. The compound functional activity is evaluated for its impact on IL-17A-induced G-CSF production in human normal keratinocyte (NHK).
Adult normal human keratinocytes are cultured in keratinocyte growth medium (Lonza) in a flask till reaching ~90% confluence, then cells are transferred to a 384-well plate at density of 3000-4000 cell/well. Recombinant human IL-17A (Gibco PHC9174) is pre-incubated with titrated compound or DMSO for 1 h at rt then added to the cell culture plate. The final concentration of IL-17A is 5 ng/mL and DMSO is 0.2%, in the culture containing 5% FBS. Cells are cultured/treated for 24 h at 37° C. Supernatants are collected and G-CSF production is measured through HTRF technology using Human G-CSF Kit (CisBio). G-CSF concentration was extrapolated from the standard curve and IC50 is determined using GraphPad Prism. Cell viability is also evaluated using CellTiter-Glo kit (Promega) and effect of compound on cell viability is compared to DMSO control.

Chain of UniProt Q16552 (Q16552 with tags, fused parts or gaps K93Q): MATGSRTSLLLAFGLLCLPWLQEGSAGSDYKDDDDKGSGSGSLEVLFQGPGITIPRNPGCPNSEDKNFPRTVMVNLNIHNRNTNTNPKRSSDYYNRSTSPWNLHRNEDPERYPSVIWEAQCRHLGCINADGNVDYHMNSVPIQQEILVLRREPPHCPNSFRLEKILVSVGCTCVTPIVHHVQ

Structure (SMILES)	IC50 [1]	IC50 [2]
O=C(N[C@H](c1cn2ncc(C[C@@H]3C(=O)NC[C@@H]3C(F)(F)F)cc2n1)C1CCC(F)(F)CC1)c1nonc1C1CC1 (relative stereo) [Example 49, 4-Cyclopropyl-N—((S)-(4,4-difluorocyclohexyl)(7-(((3S*,4R*)-2-oxo-4-(trifluoromethyl)pyrrolidin-3-yl)methyl)imidazo[1,2-b]pyridazin-2-yl)methyl)-1,2,5-oxadiazole-3-carboxamide]	400 to 4000 nM	> 4000 nM
O=C(N[C@H](c1cn2ncc([C@H](O)[C@H]3C[C@H](C(F)(F)F)NC3=O)cc2n1)C1CCC(F)(F)CC1)c1nonc1C1CC1 (relative stereo) [Example 63, 4-Cyclopropyl-N—((S)-(4,4-difluorocyclohexyl)(7-((R*)-hydroxy((3R*,5R*)-2-oxo-5-(trifluoromethyl)pyrrolidin-3-yl)methyl)imidazo[1,2-b]pyridazin-2-yl)methyl)-1,2,5-oxadiazole-3-carboxamide]	400 to 4000 nM	> 4000 nM
O=C(N[C@H](c1cn2ncc([C@H](O)[C@@H]3C[C@H](C(F)(F)F)NC3=O)cc2n1)C1CCC(F)(F)CC1)c1nonc1C1CC1 (relative stereo) [Example 64, 4-Cyclopropyl-N—((S)-(4,4-difluorocyclohexyl)(7-((R*)-hydroxy((3S*,5R*)-2-oxo-5-(trifluoromethyl)pyrrolidin-3-yl)methyl)imidazo[1,2-b]pyridazin-2-yl)methyl)-1,2,5-oxadiazole-3-carboxamide]	400 to 4000 nM	< 400 nM
CC(C)(CC[C@H](NC(=O)c1nonc1C1CC1)c1cn2ncc([C@H](O)[C@H]3C[C@@H](C(F)(F)F)NC3=O)cc2n1)C(F)(F)F (relative stereo) [Example 65, 4-Cyclopropyl-N—((S)-5,5,5-trifluoro-1-(7-((R*)-hydroxy((3R*,5S)-2-oxo-5-(trifluoromethyl)pyrrolidin-3-yl)methyl)imidazo[1,2-b]pyridazin-2-yl)-4,4-dimethylpentyl)-1,2,5-oxadiazole-3-carboxamide]	< 400 nM	< 400 nM

Now from value to compound, other results behind:

IC50 [1]	Structure (SMILES)	IC50 [2]
< 400 nM	Cc1nonc1C(=O)N[C@H](c1cn2ncc(C[C@H]3CC[C@@H](C(F)(F)F)NC3=O)cc2n1)C1CCC(F)(F)CC1 (relative stereo) [Example 47, N—((S)-(4,4-difluorocyclohexyl)7-(((3R*,6S*)-2-oxo-6-(trifluoromethyl)piperidin-3-yl)methyl)imidazo[1,2-b]pyridazin-2-yl)methyl)-4-methyl-1,2,5-oxadiazole-3-carboxamide]	400 to 4000 nM
> 4000 nM	Cc1nonc1C(=O)N[C@H](c1cn2ncc(C[C@@H]3CC[C@H](C(F)(F)F)NC3=O)cc2n1)C1CCC(F)(F)CC1 (relative stereo) [Example 48, N—((S)-(4,4-difluorocyclohexyl)7-(((3S*,6R*)-2-oxo-6-(trifluoromethyl)piperidin-3-yl)methyl)imidazo[1,2-b]pyridazin-2-yl)methyl)-4-methyl-1,2,5-oxadiazole-3-carboxamide]	> 4000 nM
400 to 4000 nM	O=C(N[C@H](c1cn2ncc(C[C@@H]3C[C@H](C(F)(F)F)NC3=O)cc2n1)C1CCC(F)(F)CC1)c1nonc1C1CC1 (relative stereo) [Example 68, 4-Cyclopropyl-N—((S)-(4,4-difluorocyclohexyl)(7-(((3R*,5R*)-2-oxo-5-(trifluoromethyl)pyrrolidin-3-yl)methyl)imidazo[1,2-b]pyridazin-2-yl)methyl)-1,2,5-oxadiazole-3-carboxamide]	400 to 4000 nM
400 to 4000 nM	O=C(N[C@H](c1cn2ncc(C[C@H]3C[C@H](C(F)(F)F)NC3=O)cc2n1)C1CCC(F)(F)CC1)c1nonc1C1CC1 (relative stereo) [Example 69, 4-Cyclopropyl-N—((S)-(4,4-difluorocyclohexyl)(7-(((3S*,5R*)-2-oxo-5-(trifluoromethyl)pyrrolidin-3-yl)methyl)imidazo[1,2-b]pyridazin-2-yl)methyl)-1,2,5-oxadiazole-3-carboxamide]	400 to 4000 nM
